Assay results from the supplement of paper PMC10307832.

Assays:
Assay in all cases: relative viability (nuclei count vs DMSO), 5 days (fraction); higher = more cells survive
[1] = compound: CC1=CC(=CC=C1)NC2=NC(=CS2)C3=CC=NC=C3
Procedure, shortened: (§1)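 On vehicle-anchored 1536-well plates, lung cancer cell lines held overnight at 37 °C were pinned with five library-drug doses (not always all listed) spaced by √10. With no medium change over 5 days, they were then fixed, permeabilised and Hoechst-stained in one step and imaged at 4×. MetaXpress counted nuclei, and viability is the median across plates of treated-well over vehicle-well nuclei. Acceptance needed control CV below 25% and at least one doubling.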

Masitinib = compound: Cc1ccc(NC(=O)c2ccc(CN3CCN(C)CC3)cc2)cc1Nc1nc(-c2cccnc2)cs1 [Masitinib]
Procedure, shortened: as §1

[2] = compound: CC1=CC(=CC=C1)NC2=NC(=CS2)C3=CC=NC=C3 + Cc1nc(NC(=O)N2CCC[C@H]2C(N)=O)sc1-c1ccnc(C(C)(C)C(F)(F)F)c1 [Alpelisib] (partner 2 µM)
Procedure, shortened: (§2)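 Relative viability is defined as nuclei in treated wells over nuclei in vehicle wells. Duplicate plates were run and medians reported. Lung cancer cell lines in 1536-well plates were dosed by pin tool one day after seeding, with one drug or with a fixed anchor-drug dose plus five library-drug doses (not always all listed) in √10 steps, and nuclei were counted after 5 days.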

Masitinib + Pemetrexed = compound: Cc1ccc(NC(=O)c2ccc(CN3CCN(C)CC3)cc2)cc1Nc1nc(-c2cccnc2)cs1 [Masitinib] + Nc1nc2[nH]cc(CCc3ccc(C(=O)N[C@@H](CCC(=O)O)C(=O)O)cc3)c2c(=O)[nH]1 [Pemetrexed] (partner 0.2 µM)
Procedure, shortened: as §2

Cell Line | relative viability ([1]; 0.08 µM) | relative viability ([1]; 0.253 µM) | relative viability ([1]; 0.8 µM) | relative viability ([1]; 2.53 µM) | relative viability ([1]; 8 µM) | relative viability (Masitinib; 0.01 µM) | relative viability (Masitinib; 0.03162 µM) | relative viability (Masitinib; 0.1 µM) | relative viability (Masitinib; 0.3162 µM) | relative viability (Masitinib; 1 µM) | relative viability ([2]; first compound 0.08 µM) | relative viability ([2]; first compound 0.253 µM) | relative viability ([2]; first compound 0.8 µM) | relative viability ([2]; first compound 2.53 µM) | relative viability ([2]; first compound 8 µM) | relative viability (Masitinib + Pemetrexed; first compound 0.01 µM) | relative viability (Masitinib + Pemetrexed; first compound 0.03162 µM) | relative viability (Masitinib + Pemetrexed; first compound 0.1 µM) | relative viability (Masitinib + Pemetrexed; first compound 0.3162 µM) | relative viability (Masitinib + Pemetrexed; first compound 1 µM)
NCI-H2085 | 0.99 | 1 | 0.968 | 0.94 | 0.826 | 0.891 | 0.983 | 1.01 | 1.05 | 0.958 | 0.887 | 1.02 | 0.946 | 0.833 | 0.705 | 0.976 | 0.936 | 1.01 | 0.992 | 0.844
NCI-H2087 | 0.951 | 0.895 | 1.01 | 0.877 | 0.93 | 0.961 | 1.22 | 1.07 | 1.18 | 1.01 | 0.931 | 1.14 | 0.772 | 1.29 | 0.932 | 0.642 | 0.666 | 0.66 | 0.555 | 0.703
NCI-H2126 | 0.881 | 0.864 | 0.893 | 0.824 | 0.863 | 0.908 | 0.996 | 0.978 | 0.847 | 0.931 | 0.664 | 0.689 | 0.727 | 0.71 | 0.634 | 0.633 | 0.713 | 0.672 | 0.665 | 0.738
NCI-H2170 | 0.901 | 1.01 | 0.945 | 0.942 | 0.824 | 0.843 | 0.933 | 0.983 | 1.04 | 0.991 | 0.706 | 0.691 | 0.639 | 0.707 | 0.555 | 0.238 | 0.264 | 0.263 | 0.284 | 0.263
NCI-H2228 | 0.838 | 0.948 | 0.784 | 0.91 | 0.726 | 0.998 | 0.808 | 1.16 | 1.04 | 1.06 | 0.476 | 0.644 | 0.612 | 0.688 | 0.502 | 0.342 | 0.372 | 0.347 | 0.347 | 0.363
NCI-H2347 | 0.948 | 0.864 | 0.749 | 0.982 | 0.964 | 0.88 | 0.911 | 1 | 1.02 | 0.966 | 0.821 | 1.11 | 0.614 | 1.07 | 0.993 | 0.425 | 0.406 | 0.385 | 0.446 | 0.417
NCI-H2405 | 0.851 | 0.918 | 0.85 | 0.915 | 0.901 | 0.859 | 0.953 | 0.907 | 0.973 | 0.932 | 0.679 | 0.799 | 0.578 | 0.87 | 0.699 | 0.962 | 1.05 | 0.98 | 1.04 | 0.704
NCI-H3122 | 0.983 | 1.05 | 1.04 | 1.06 | 0.972 | 0.854 | 1.03 | 0.959 | 1 | 1.08 | 0.724 | 0.794 | 0.843 | 1.01 | 0.923 | 0.175 | 0.196 | 0.193 | 0.201 | 0.191
PC-3 [JPC-3] | 0.941 | 0.936 | 0.927 | 0.868 | 0.91 | 0.95 | 0.951 | 1.04 | 1.04 | 1.02 | 0.95 | 0.939 | 0.845 | 0.875 | 0.84 | 1.04 | 0.733 | 1.06 | 1.37 | 0.87
PC-14 | 0.94 | 0.899 | 0.943 | 0.917 | 0.766 | 0.916 | 0.943 | 1.01 | 1.01 | 1.01 | 0.942 | 0.988 | 0.851 | 0.989 | 0.94 | 0.137 | 0.144 | 0.13 | 0.12 | 0.141
RERF-LC-KJ | 0.945 | 0.91 | 0.834 | 0.751 | 0.714 | 0.922 | 0.943 | 1.03 | 0.963 | 0.829 | 1.01 | 0.83 | 0.773 | 0.715 | 0.654 | 0.475 | 0.522 | 0.44 | 0.535 | 0.459
SK-LU-1 | 0.996 | 1.03 | 0.702 | 1.1 | 0.968 | 1.05 | 1.05 | 1.13 | 1.24 | 1.02 | 0.955 | 0.934 | 0.617 | 0.992 | 0.852 | 0.982 | 1 | 1.06 | 0.919 | 1.03
SK-MES-1 | 0.815 | 0.82 | 0.804 | 0.922 | 0.861 | 0.923 | 0.945 | 1.04 | 0.881 | 0.99 | 0.626 | 0.862 | 0.893 | 0.853 | 0.848 | 0.844 | 0.924 | 0.873 | 0.877 | 0.967
SW 1573 | 0.989 | 0.945 | 1.08 | 0.962 | 0.909 | 1.08 | 0.945 | 1.1 | 1.02 | 0.974 | 0.746 | 0.744 | 0.593 | 0.732 | 0.625 | 0.808 | 0.942 | 0.854 | 0.873 | 0.92
UMC-11 | 0.872 | 0.927 | 0.927 | 0.93 | 1.03 | 0.926 | 0.969 | 1.09 | 0.961 | 1.06 | 1.02 | 0.91 | 0.993 | 0.993 | 1.06 | 0.755 | 0.751 | 0.783 | 0.813 | 0.882
